Experimental data: US10342758B2, “Cationic lipid” (Kyowa Hakko Kirin Co., Ltd., priority 2012, dated 2019)

Assay: Average particle diameter of preparation (Zetasizer Nano ZS)
Format: physicochemical
Conditions: preparation with f7 siRNA
Method: The average particle diameter of each preparation (composition) was measured using a particle diameter measurement device (Zetasizer Nano ZS, manufactured by Malvern, hereafter the same).
The average particle diameter of each preparation (composition) was measured using a particle diameter measurement device.
Each sample was weighed and suspended in an aqueous solution containing hydrochloric acid and ethanol so that the ratio of Compound A-1/PEG-DMPE Na (manufactured by NOF Corporation) was 57.3/5.52 mmol/L, and then, the resulting mixture was repeatedly subjected to stirring using a vortex stirring mixer and heating, whereby a uniform suspension was obtained. This suspension was passed through a 0.2-μm polycarbonate membrane filter and thereafter passed through a 0.05-μm polycarbonate membrane filter at room temperature, whereby a dispersion liquid of particles (liposome) of Compound A-1/PEG-DMPE Na was obtained. The average particle diameter of the obtained liposome was measured using a particle diameter measuring apparatus to confirm that the average particle diameter was within the range from 30 nm to 100 nm. In the obtained dispersion liquid of liposome, the f7 siRNA solution was mixed at a ratio of the dispersion liquid of liposome to the fl siRNA solution of 3:1, and then, distilled water that was three times the amount was added thereto and mixed therewith, whereby a dispersion liquid of Compound A-1/PEG-DMPE Na/f7 siRNA complex was prepared.
The average particle diameter of the preparation (composition) was measured using a particle diameter measurement device.

[1] = compound/PEG-DMPE Na/DSPC/cholesterol, Examples 50, 51 / Comparative Example 2
[2] = liposome/siRNA complex encapsulated by lipid membrane, Examples 52, 53 / Comparative Example 3
[3] = compound/PEG-DMPE Na/DSPC/cholesterol=7.030/0.755/2.038/4.892 mmol/L, Example 54

Structure (SMILES)	Particle diameter of Preparation obtained [1] [nm]	Particle diameter of Preparation obtained [2] [nm]	Particle diameter of Preparation obtained [3] [nm]
CCCCC/C=C\C/C=C\CCCCCCCCN(CCCCCCCC/C=C\C/C=C\CCCCC)C(=O)OCC1CCCCN1C (stereo not shown) [Compound A-16, (1-Methylpiperidin-2-yl)methyl di((9Z,12Z)-octadeca-9,12-dien-1-yl)carbamate]	133.4	105.5	–
CCCCC/C=C\C/C=C\CCCCCCCCN(CCCCCCCCCC)C(=O)OCCCN(C)C [Compound A-10, 3-(Dimethylamino)propyl decyl((9Z,12Z)-octadeca-9,12-dienyl)carbamate]	148.7	123.1	156.2
CCCCC/C=C\C/C=C\CCCCCCCCN(CCCCCCCC/C=C\C/C=C\CCCCC)C(=O)OCCCN(C)C [Compound A-1, 3-(Dimethylamino) propyl di((9Z,12Z)-octadeca-9,12-dienyl)carbamate]	–	95.9	113.0
CCCCC/C=C\C/C=C\CCCCCCCCOCCN(CCCCCCCC/C=C\C/C=C\CCCCC)C(=O)OCCCN1CCCCC1 [Compound A-29, 3-(Piperidin-1-yl)propyl ((9Z,12Z)-octadeca-9,12-dienyl)(2-((9Z,12Z)-octadeca-9,12-dienyloxy)ethyl)carbamate]	130.6	103.4	–
CCCCCCCC/C=C\CCCCCCCCN(CCCCCCCC/C=C\CCCCCCCC)C(=O)OCCC1CCCN1C (stereo not shown) [Compound A-17, 2-(1-Methylpyrrolidin-2-yl)ethyl di((Z)-octadec-9-enyl)carbamate]	129.1	101.4	–

Results, then the molecule that gave them:

Particle diameter of Preparation obtained [1] [nm]	Particle diameter of Preparation obtained [2] [nm]	Particle diameter of Preparation obtained [3] [nm]	Structure (SMILES)
137.3	98.8	–	CCCCC/C=C\C/C=C\CCCCCCCCN(CCO)CCCCCCCC/C=C\C/C=C\CCCCC [Compound C-4, 2-(Di((9Z,12Z)-octadeca-9,12-dienyl)amino)ethanol]
–	93.6	–	CCCCC/C=C\C/C=C\CCCCCCCCN(CCCCCCCC/C=C\C/C=C\CCCCC)C(=O)OCCC1CCCN1C (stereo not shown) [Compound A-6, 2-(1-Methylpyrrolidin-2-yl)ethyl di((9Z,12Z)-octadeca-9,12-dienyl)carbamate]
140.0	91.4	–	CCCCC/C=C\C/C=C\CCCCCCCCCCN(CCCCCCCCCC/C=C\C/C=C\CCCCC)C(=O)OCCC1CCCN1C (stereo not shown) [Compound A-19, 2-(1-Methylpyrrolidin-2-yl)ethyl di((11Z,14Z)-icosa-11,14-dienyl)carbamate]
135.0	103.1	–	CCCCC/C=C\C/C=C\CCCCCCCCN(CCCCCCCC/C=C\C/C=C\CCCCC)C(=O)OCCCCN(C)C [Compound A-13, 4-(Dimethylamino)butyl di((9Z,12Z)-octadeca-9,12-dienyl)carbamate]
126.5	127.2	–	CCCCC/C=C\C/C=C\CCCCCCCCN(CCOCCCCCCCC/C=C\CCCCCC)C(=O)OCCCN(C)C [Compound A-36, 3-(Dimethylamino)propyl (2-((Z)-hexadec-9-enyloxy)ethyl)((9Z,12Z)-octadeca-9,12-dienyl)carbamate]
124.3	88.3	–	CCCCC/C=C\C/C=C\CCCCCCCCN(CCCO)CCCCCCCC/C=C\C/C=C\CCCCC [Compound C-1, 3-(Di((9Z,12Z)-octadeca-9,12-dienyl)amino)propan-1-ol]
–	116.2	–	CCCCC/C=C\C/C=C\CCCCCCCCOCC(CN(C)C(=O)OCCCN(C)C)OCCCCCCCC/C=C\C/C=C\CCCCC (stereo not shown) [Compound XI-9, 3-(Dimethylamino)propyl 2,3-bis((9Z,12Z)-octadeca-9,12-dienyloxy)propyl(methyl)carbamate, reference compound]
124.0	98.4	–	CCCCC/C=C\C/C=C\CCCCCCCCN(CCCCCCCC/C=C\C/C=C\CCCCC)C(=O)OCC1CCCN(C)C1 (stereo not shown) [Compound A-15]
